Experimental data from PubChem BioAssay AID179 (DTP/NCI, 2004).
Several values for one entry are separate records, joined by “and”; a condition that tells them apart may be missing. Equal entries are not always repeated. Activity calls are given as the source filed them.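 The calls were made as follows: active = compounds giving half or more protection of infected cells from virus-caused growth loss, again on retest; inactive = the rest.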 Where a SMILES comes first, the peptide text is derived from it. Bridges are numbered along the chain shown (N, C = ends).

System: CEM cells HIV-1 protection, formazan growth assay
Experiment: NCI AIDS Antiviral Assay
Settings: for IC50: measured here: growth of uninfected CEM cells
In short: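 Human CEM cells, uninfected and HIV-1-infected, exposed to five drug concentrations; growth measured by soluble formazan assay and scored as percent protection from infection, with protecting compounds retested.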

Row | SMILES | outcome | EC50 [µM] | IC50
1 | O=C(CC1(O)C(=O)Nc2c(Cl)cc(Cl)cc21)c1ccc(Cl)cc1 (stereo not drawn) | inactive | – | –
2 | OCCCCCCCCCCCOc1ccc(C2OCC3(CO2)COC(c2ccc(OCCCCCCCCCCCO)cc2)OC3)cc1 (stereo not drawn) | – | > 50.1 | > 50.1 µM
3 | Cc1ccc2cc1NC(=O)N1CCN(CC1)C(=O)Nc1cc(ccc1C)NC(=O)N1CCN(CC1)C(=O)N2 | – | > 3.8 | > 3.8 µM
4 | CSc1nc(C)cc(=O)n1C1OC(COC(C)=O)C(OC(C)=O)C(OC(C)=O)C1OC(C)=O (stereo not drawn) | – | > 200 | > 200 µM
5 | CCOC(=O)CC(SP1(=S)OCC2(CC=CCC2)CO1)C(=O)OCC (stereo not drawn) | – | > 200 | 93.3 µM
6 | COc1ccc2c(c1)CCN1C2CCN2C(=O)CCC21 (stereo not drawn) | – | > 912 | > 912 µM
7 | OCC(O)C(O)C(O)C(O)c1nn[nH]n1 (stereo not drawn) | inactive | – | –
8 | O=CN(CCNc1ccccc1)c1ccccc1 | – | > 200 | > 200 µM
9 | c1ccc2nc(NCCSSCCNc3cnc4ccccc4n3)cnc2c1 | – | > 200 | 24.5 µM
10 | COC(=O)/C=C\C(C#N)(C#N)N=Cc1sccc1C | – | 0.11 | 0.398 µM
11 | c1ccc(-c2c[se]nn2)cc1 | – | > 174 | 93.3 µM
12 | O=c1c2cc3c(cc2c2cccc4ccn1c42)OCO3 | inactive | – | –
13 | CN(C)c1nc2nonc2nc1Nc1ccccc1 | – | > 200 | > 200 µM
14 | CCOC(=O)c1cc(-c2ccc(OC)cc2)c([N+](=O)[O-])n1C | – | > 200 | 32.4 µM
15 | O=[N+]([O-])c1ccc(Cl)c(C2SCc3nc4ccccc4n32)c1 (stereo not drawn) | – | > 39.8 | 33.1 µM
16 | CCC/C(=N\NC(=O)c1cc2ccccc2cc1O)C(CC)C(=O)CCC(=O)N(Cc1ccccc1)Cc1ccccc1 (stereo not drawn) | – | > 44.7 | > 44.7 µM
17 | COCn1cnc2c(=O)n(-c3ccc(OC)cc3)c(=S)n(-c3ccc(OC)cc3)c21 | – | > 200 | > 200 µM
18 | CCNC(=O)N(CC)CN(CC)C(=O)NCC | – | > 182 | 95.5 µM
19 | CCN(CC)CCCNc1cnnc2cc(Cl)ccc12 | – | > 363 | 83.2 µM
20 | CC(=O)N1C(=O)C2(NCCCN2)c2ccccc21 | – | > 40.7 | > 40.7 µM
21 | COc1ccc2c(c1)C(O)C(CO)C(C(=O)O)C2 (stereo not drawn) | – | > 200 | > 200 µM
22 | Cc1cc2c(C)cc3c(c2oc1=O)[C@@H](OC(=O)C12CCC(C)(C(=O)O1)C2(C)C)[C@@H](OC(=O)C12CCC(C)(C(=O)O1)C2(C)C)C(C)(C)O3 (stereo partly drawn) | – | 0.692 | 6.92 µM

Row | SMILES | outcome | EC50 [µM] | IC50
23 | O=C(Nc1ccccc1)C(=O)C(C(=O)c1ccccc1F)C1OC(=O)c2ccccc21 (stereo not drawn) | – | > 309 | 17.4 µM
24 | CC(C)[Si](OCC1CC(C[C@H]2CC(C[C@H]3C[C@@H](CO[Si](C(C)C)(C(C)C)C(C)C)OC(C)(C)O3)OC(C)(C)O2)OC(C)(C)O1)(C(C)C)C(C)C (stereo partly drawn) | – | > 200 | > 200 µM
25 | NC(=O)NN=C1Cc2ccccc2C1 | – | > 200 | > 200 µM
26 | CCC(C)C1NC(=O)C(CC(C)C)NC(=O)C(C(C)C)NC(=O)C2CSSCC(NC1=O)C(=O)N2 (stereo not drawn) (cyclo(CCVLI); disulfide 1-2; configuration not given here) | – | > 2 | 0.339 µM
27 | COc1ccc(N2C(=O)C3c4[nH]c5ccc(C)cc5c4C4CCC(C(C)(C)C)CC4C3C2=O)cc1 (stereo not drawn) | – | 12 | 47.9 µM
28 | CC12CCCC(O)C1CCC1=CC3(CCC12)SCCS3 (stereo not drawn) | – | > 12 | > 12 µM
29 | CC12CCC(C(=Nc3ccc([N+](=O)[O-])cc3)C1=O)C2(C)C (stereo not drawn) | – | > 200 | 35.5 µM
30 | CCC(NC(C)c1ccccc1)C(O)c1ccc(OCc2ccccc2)c(OCc2ccccc2)c1 (stereo not drawn) | – | > 200 | 10.7 µM
31 | CC1=C(O)C(=O)C2C(=O)C1C(C)C2c1ccc(Cl)cc1 (stereo not drawn) | – | > 123 | > 123 µM
32 | O=[N+]([O-])c1cc(C(F)(F)F)ccc1S(=O)(=O)c1ccccc1 | – | > 77.6 | 3.89 µM and 1.26 µM
33 | C=CCN1C(=O)CS/C1=N/NC(=O)C(O)(c1ccccc1)c1ccccc1 | – | > 200 | 129 µM
34 | C=CN(C=C)C(=O)Cn1cc(-c2ccccc2)nn1 | – | > 200 | > 200 µM
35 | COc1c(C(=O)c2cc(Cl)cc(S(=O)(=O)N(C)C=O)c2OC)cc(Cl)cc1S(=O)(=O)N(C)C=O | – | > 46.8 | > 46.8 µM
36 | Cc1ccc(N=Nc2c(O)c(S(=O)(=O)O)cc3cc(S(=O)(=O)O)ccc23)c(C)c1 | inactive | – | –
37 | O=c1c2ccccc2n2nnc3cccc1c32 | – | > 23.4 | > 23.4 µM
38 | CO[C@@]12CC(=O)/C(=C(O)\C=C\c3ccccc3)C(=O)[C@]1(O)Cc1ccccc1O2 | – | > 316 | 42.7 µM
39 | CCOC(=O)c1sc(SC)nc1N | – | > 200 | > 200 µM
40 | O=S1(=O)C2C=CCC1C(O)CC2 (stereo not drawn) | – | > 933 | > 933 µM
41 | O=C1NC2(CCCCC2)C2CCCCCC12 (stereo not drawn) | inactive | – | –
42 | O=C(O)c1cscc1Cc1ccccc1 | – | > 200 | > 200 µM
43 | NC(=S)N/N=C1\C(=O)N(c2cccc([N+](=O)[O-])c2)C(=O)C1C(=O)Nc1cccc([N+](=O)[O-])c1 (stereo not drawn) | inactive | – | –
44 | NCCCN1CCN(CCCNc2ccc3ncn4c5ccccc5c(=O)c2c34)CC1 | – | > 25.1 | 1.2 µM

Row | SMILES | outcome | EC50 [µM] | IC50
45 | O=c1nc(NC(c2ccccc2)(c2ccccc2)c2ccccc2)ccn1CCCl | inactive | – | –
46 | O=C1C=CC(=O)c2c(-c3ccccc3[N+](=O)[O-])cc(Cl)nc21 | inactive | – | –
47 | NC(CS)C(=O)NCCNCCNc1ccc(NCCNCCNC(=O)C(N)CS)c2c1C(=O)c1c(O)ccc(O)c1C2=O (stereo not drawn) | – | > 200 | 13.5 µM
48 | CC(C)CCC[C@@H](C)C1CCC2[C@@H]3CCC4C[C@@H](CC/C=C/CC[C@H]5CC[C@@]6(C)C(CC[C@@H]7C6CC[C@@]6(C)C7CCC6[C@H](C)CCCC(C)C)C5)CC[C@]4(C)C3CC[C@@]21C (stereo partly drawn) | – | > 9.55 | > 9.55 µM
49 | C=CCCCCCCCCC(=O)NCc1nc2ccccc2[nH]1 | – | > 200 | 29.5 µM
50 | O=C(Nc1ccc(S(=O)(=O)/N=c2\ncccn2C(=O)C(C(F)(F)F)C(F)(F)F)cc1)C(C(F)(F)F)C(F)(F)F | – | > 200 | > 200 µM
51 | O=C(O)C1(C(O)c2ccccc2)SCCCS1 (stereo not drawn) | – | > 200 | > 200 µM
52 | NCCCC[C@@H](NC(=O)[C@H](CS)NC(=O)[C@@H](N)Cc1cnc[nH]1)C(=O)N[C@H](Cc1ccccc1)C(=O)N[C@H](Cc1c[nH]c2ccccc12)C(=O)N[C@@H](Cc1c[nH]c2ccccc12)C(N)=O | – | > 200 | > 200 µM
53 | CCOC(=O)C1CC(O)C(=O)N1C (stereo not drawn) | inactive | – | –
54 | CO/C=C/c1ccc2c(c1)OCO2 | inactive | – | –
55 | Nc1nc2c3c(ncn3CC(O)CO2)n1 (stereo not drawn) | – | > 9.55 | > 9.55 µM
56 | CC(C)(C)OC(=O)[C@H]1CCC(=S)N1Cc1ccccc1 | – | > 200 | > 200 µM
57 | CC12CC(=O)NN=C1c1ccccc1C2 (stereo not drawn) | inactive | – | –
58 | O=[N+]([O-])c1cc2ccc(O)cc2c2ccccc12 | – | 51.3 | 61.7 µM
59 | COc1ccccc1NC(=O)C1=C(C)NC(C)=C(C(=O)Nc2ccccc2OC)C1c1ccccc1OC | – | > 19.5 | > 19.5 µM
60 | CSc1ncc(Br)c(Nc2c[nH]c(=O)[nH]c2=O)n1 | – | > 200 | > 200 µM
61 | On1c(-c2ccccc2)c(-c2c(-c3ccccc3)n(O)c3ccccc23)c2ccccc21 | – | > 316 | 132 µM
62 | COC12COC(=O)C1C(c1ccc3c(c1)OCO3)c1cc3c(cc1O2)OCO3 (stereo not drawn) | – | > 200 | 9.12 µM
63 | CCOC(=O)CNC(=O)C(CSSCC(NC(=O)OCc1ccccc1)C(=O)O)NC(=O)OCc1ccccc1 (stereo not drawn) | – | > 200 | > 200 µM
64 | O=c1ccnc(Nc2ccc[nH]c2=S)[nH]1 | – | > 589 | 282 µM
65 | O=C(Nc1ccc(C2=NCCN2)c(O)c1)c1ccc(C(=O)Nc2ccc(C3=NCCN3)c(O)c2)cc1 | – | 95.5 | > 200 µM
66 | CC(C)(C)C1CCC2(CC1)c1[nH]c3ccccc3c1C1(CCC(C(C)(C)C)CC1)c1[nH]c3ccccc3c12 (stereo not drawn) | – | > 7.41 | > 7.41 µM

Row | SMILES | outcome | EC50 [µM] | IC50
67 | O=C1SCC(O)=C1/C=N/Nc1nc2ccccc2o1 | – | > 50.1 | 2.63 µM
68 | CCOC(=O)[C@@H]1ON2O[C@@H](OC3CCCC3(c3ccccc3)c3ccccc3)C[C@H]3OC(=O)[C@@H]1C32 (stereo partly drawn) | – | > 200 | 34.7 µM
69 | CC(=O)ON(C)C1CC(=O)OC1CO[Si](C)(C)C(C)(C)C (stereo not drawn) | – | > 200 | 93.3 µM
70 | Cc1cccc(NC(=O)Nc2ccc(F)cc2)n1 | – | 129 | > 200 µM
71 | CCc1nnc2n1N=C(c1ccc(-c3ccccc3)cc1)CS2 | – | > 200 | 11.5 µM
72 | COC(=O)C1=CCC[C@H]2C1(C)CCC(C)C21CC(c2ccoc2)OC1=O (stereo partly drawn) | – | > 100 | 51.3 µM
73 | CC(C)NC(=O)N(Nc1ccccc1)C(C)(C)C | – | > 200 | 110 µM
74 | Cc1ccc(S(=O)(=O)N2CCCSCC2)cc1 | – | > 182 | > 182 µM
75 | COc1cc2c(cc1OC)[C@H](C)N1CCc3cc(OC)c(OC)cc3[C@@H]1C2 | – | > 200 | > 200 µM
76 | O=Nc1ccc(O)c2ncccc12 | inactive | – | –
77 | C=C1C2CCC3(C4C[C@@H]5C6(C)CCCC5([C@H](O4)N4CCO[C@H]46)[C@@H]3C2)C1OC(C)=O (stereo partly drawn) | – | > 18.2 | > 18.2 µM
78 | CCOC(=O)NC(Nc1ncccn1)(C(=O)OCC)C(F)(F)F (stereo not drawn) | – | > 200 | > 200 µM
79 | COC(=O)C12OC3CO[Si](C(C)C)(C(C)C)O[Si](C(C)C)(C(C)C)OC3C1Oc1nc(=O)ccn12 (stereo not drawn) | – | > 200 | 35.5 µM
80 | NC(CCSCCF)C(=O)O (stereo not drawn) | – | > 692 | 102 µM
81 | CC1C(c2cc(C(C)(C)C)c(O)c(C(C)(C)C)c2)c2cc3c(cc2OC1N1CCOCC1)OCO3 (stereo not drawn) | – | > 200 | > 200 µM
82 | C=CCNC(=S)/N=C/c1c(O)c2ccccc2oc1=O | – | > 64.6 | 43.7 µM
83 | S=c1sc(-c2ccc(Cl)cc2)nn1CSc1nc2ccccc2[nH]1 | – | > 200 | 31.6 µM
84 | NC(CSS(=O)(=O)O)=NCCc1c[nH]c(=S)[nH]1 | – | > 200 | 34.7 µM
85 | COc1ccc(N=C2S/C(=N\C(=Nc3ccccc3)SCc3ccccc3)N(c3ccccc3)C2=Nc2ccc(OC)cc2)cc1 | – | > 200 | 120 µM
